The values below come from patent US20240082183A1, “METHODS FOR PREVENTING OR TREATING CONDITIONS RELATED TO T CELL MEDIATED INTESTINAL DISORDERS” (The Regents of the University of Michigan, priority 2021, published 2024).

The test system of one series is B6 WT mice, colonic IECs. The series is described as follows: DSS chemical induced colitis model. It is filed as in vivo. The settings on record: twelve days after DSS treatment, vs control animals. The procedure:
Colitis models: For the DSS colitis model, animals were provided with drinking water containing 2.5-3% DSS (#0216011010. MP Biomedicals, Santa Ana, CA) for 7 days. Mice were injected with 100 μg of anti-CTLA-4 mAb (#BE0164, clone 9D9, Bio X Cell, West Lebanon, NH) or isotype control (#BE0086, MCP-11, Bio X Cell) twice (3 and 1 day before DSS administration). For the T-cell transfer induced colitis model, isolated splenic T cells from WT B6 and Prf^−/−mice were stained with DAPI (#422801, 1 μM, Biolenged), APC-Cy7 anti-CD4 (#560246, GK1.5, 1:100, BD Biosciences, San Jose, CA), APC anti-CD25 (#101910, 3C7, 1:100, Biolegend), FITC anti-CD44 (#103006, IM7, 1:100, Biolegend) and PE anti-CD45RB (#103308, C363-16A, 1:100, Biolegend). CD4^+CD25^−CD44^−CD45RB^hi cells were sorted with the MoFlo Astrios cell sorter (Beckman Coulter, Indianapolis, IN) and intraperitoneally injected into Rag-1^−/−recipients.
Fluorescent immunohistochemistry staining: Sections were prepared as mentioned in the SDH functional staining method. […] SDH levels were quantified and measured in intensity from Cy3 positive epithelial cells using Image J. For primary mice colonic epithelial cells, cells were spun down and put on coverslips. […]
Succinate quantification: Isolated IECs were collected, processed and analysed using the Succinate Assay Kit (#ab204718, Abcam) according to the manufacturer's protocol.

Another series has as its target T1, SDHA (Mus musculus, UniProt Q8K2B3+Q9CQA3+Q9CXV1+Q9CZB0).
T1 construct: from tissue; host or cells: colon and ileum of naive B6 WT mice
Kind of series: SDH enzyme staining of colon and ileum 12 h after oral gavage. It is filed as in vivo, B6 WT mice. Conditions: naive B6 WT, 12 h after administration. The procedure: Hematopoietic cell transplantation (HCT): Splenic T cells from donors were enriched, and the BM was depleted of T cells by autoMACS (Miltenyi Biotec, Bergisch Gladbach, Germany) utilizing CD90.2 microbeads (#130-121-278, Miltenyi Biotec). WT B6, C3H.SW, Sdhaf1^−/−, Sdha^Δ/IEC , Irg1h−/−B6 and BALB/c animals were used as recipients and received 1,000 cGy (WT B6, Sdhaf1^−/−and Sdha^Δ/IEC) or 800 cGy (BALB/c) TBI on day −1, respectively, and 1×10^6 (C3H.SW→C57BL/B6 or C57BL/B6→BALB/c), 3×10^6 (BALB/c→C57BL/6, Sdhaf1^−/−, Sdha^Δ/IEC) CD90.2^+T cells along with 5×10^6 T-cell-depleted BM (TCD-BM) cells from either syngeneic or allogeneic donors on day 0. [B6Ly5.2→B6] and [B6 Ly5.2→Sdhaf1^−/−] animals received 900 cGy TBI on day −1 and were injected intravenously with 3×10^6 CD90.2^+T cells and 5×10^6 TCD-BM from either syngeneic B6 or BALB/c donors on day 0. For the chemotherapy conditioning model, B6 WT mice received busulfan (#B2635, 25 mg kg^−1 from day −7 to −4; Sigma-Aldrich) and cyclophosphamide (#C7397, 100 mg kg^−1 from day −3 to −2; Sigma-Aldrich) intraperitoneally, and 1×10^7 (BALB/c→C57BL/6) CD90.2^+T cells along with 1×10^7 TCD-BM cells from either syngeneic or allogeneic donors on day 0. For the no-irradiated model, unirradiated B6D2F1 mice were intravenously injected with 10×10^7 splenocytes from B6D2F1 or B6 donors. Animals received vehicle or dimethyl malonate (DMM, #136441, 0.5 g or 5g kg^−1, Sigma-Aldrich, St. Louis, MO, USA), dimethyl itaconate (DI, #09533, 0.25 g or 2.5g kg^−1, Sigma-Aldrich) or atpenin A5 (#11898, 0.9 μg or 9 μg kg^−1, Cayman Chemical, Ann Arbor, MI, USA) according to manufacturer's instructions by flexible 20-gauge, 1,5-in, intra-gastric gavage needle every other day from day 0. […]
Succinate dehydrogenase functional staining: Specimens were dissected from naïve, syngeneic and allogeneic WT B6 mice at 7 and 21 days post HCT. […] After mounting the slides, images were obtained using Olympus BX51M (Olympus, Japan) and the SDH activity was quantified using Image J (National Institutes of Health, Bethesda, […], USA).

For series [1], the system named is GI GVHD in B6 WT recipients. It is filed as in vivo. The settings on record: for clinical GVHD severity of allogeneic mice vs vehicle / survival of allogeneic mice vs vehicle / survival of syngeneic mice: gavage every other day from day 0 post HCT; for histopathological GVHD severity in the colon and ileum / histopathological GVHD severity in the liver, skin, and lungs: allogeneic recipients, 7 days post HCT. The procedure: Hematopoietic cell transplantation (HCT): Splenic T cells from donors were enriched, and the BM was depleted of T cells by autoMACS (Miltenyi Biotec, Bergisch Gladbach, Germany) utilizing CD90.2 microbeads (#130-121-278, Miltenyi Biotec). WT B6, C3H.SW, Sdhaf1^−/−, Sdha^Δ/IEC , Irg1h−/−B6 and BALB/c animals were used as recipients and received 1,000 cGy (WT B6, Sdhaf1^−/−and Sdha^Δ/IEC) or 800 cGy (BALB/c) TBI on day −1, respectively, and 1×10^6 (C3H.SW→C57BL/B6 or C57BL/B6→BALB/c), 3×10^6 (BALB/c→C57BL/6, Sdhaf1^−/−, Sdha^Δ/IEC) CD90.2^+T cells along with 5×10^6 T-cell-depleted BM (TCD-BM) cells from either syngeneic or allogeneic donors on day 0. [B6Ly5.2→B6] and [B6 Ly5.2→Sdhaf1^−/−] animals received 900 cGy TBI on day −1 and were injected intravenously with 3×10^6 CD90.2^+T cells and 5×10^6 TCD-BM from either syngeneic B6 or BALB/c donors on day 0. For the chemotherapy conditioning model, B6 WT mice received busulfan (#B2635, 25 mg kg^−1 from day −7 to −4; Sigma-Aldrich) and cyclophosphamide (#C7397, 100 mg kg^−1 from day −3 to −2; Sigma-Aldrich) intraperitoneally, and 1×10^7 (BALB/c→C57BL/6) CD90.2^+T cells along with 1×10^7 TCD-BM cells from either syngeneic or allogeneic donors on day 0. For the no-irradiated model, unirradiated B6D2F1 mice were intravenously injected with 10×10^7 splenocytes from B6D2F1 or B6 donors. Animals received vehicle or dimethyl malonate (DMM, #136441, 0.5 g or 5g kg^−1, Sigma-Aldrich, St. Louis, MO, USA), dimethyl itaconate (DI, #09533, 0.25 g or 2.5g kg^−1, Sigma-Aldrich) or atpenin A5 (#11898, 0.9 μg or 9 μg kg^−1, Cayman Chemical, Ann Arbor, MI, USA) according to manufacturer's instructions by flexible 20-gauge, 1,5-in, intra-gastric gavage needle every other day from day 0. The mice were randomly assigned to syngeneic, allogeneic or treatment groups in each experiment. No mice were excluded from analysis. No statistical methods were used to predetermine sample size. The investigators were not blinded to allocation during experiments and outcome assessment.
Systemic and histopathological analysis of GVHD: Survival after HCT was monitored daily and assessed the degree of clinical GVHD weekly, as described previously^64. Histopathological analysis of the liver, gastrointestinal (GI) tract, and lung, which are the primary GVHD target organs, was performed as described utilizing a semi-quantitative scoring system implemented in a blinded manner by a single pathologist (C.L.)^65. After scoring, the codes were broken, and the data compiled.

The test system of series [2] is primary colonic epithelial cells (PCECs). Kind of series: In vitro allogeneic CTL assay, AnnexinV positive cells of Green CMFDA Dye positive PCECs. Conditions: PCECs treated 0.2 mM for 2 hours.
Method: PCECs were pre-treated with 5mM DMM, 0.5mM DI, 10nM atpenin A5 or vehicle for 3 hours.
Flow cytometry: Cells were re-suspended in 2% BSA in PBS and stained with the following antibodies and reagents; FITC-anti-CD326 (G8.8, #118208, 1:200), APC-anti-CD326 (G8.8, #118214, 1:200), DAPI, CellROX Deep Red (#C10491, 500 nM, Thermo Scientific), MitoSOX (#M36008, 5 μM, Thermo Scientific), JC-1 (#M34152, 2 μM, Thermo Scientific), 7-AAD (#420404, 1:100, BioLegend), Annexin V (#640947, 1:20, Biolegend), anti-CD16/CD32 antibody (BD Biosciences, 2.4G2), APC-anti-CD45.2 (#109814, 1:200, BioLegend), and CellTracker Green CMFDA Dye (#C7025, 1 μM, Invitrogen) according to manufacturer's protocol. Cells were run on Attune NxT flow cytometer (Thermo Scientific) and analyzed using FlowJo v10.2 (FlowJo LLC, Ashland, OR).
For series [3] the test system is unchanged. Kind of series: Apoptosis of pre-treated PCECs induced by perforin and Granzyme B. It is filed as cell-based, C57BL/6 mice. The settings on record: pre-treated 2 hours, then perforin and Granzyme B 4 hours. The method, then:
Cell culture: C57BL/6 primary colonic epithelial cells (PCEC, C57-6047, Cell Biologics, Chicago, IL) were cultured in compete epithelial growth medium supplemented with insulin-transferrin-selenium, epidermal growth factor, glutamine, antibiotics, antimycotics and fecal bovine serum (#M6621, Cell Biologics). Cells were routinely tested for mycoplasma contamination using MycoAlert (#LT07-318, Lonza, Switzerland). Cells were treated with Mouse active perforin (#APB317Mu01, Cloud-Clone Corp., Katy, TX) and recombinant mouse Granzyme B (#140-03, PeproTech, Rocky Hill, NJ) for 4 to 6 hours in indicated concentrations following manufacturer's recommendations. Cells were incubated with GDF-15 (#8944-GD-025, 500 pg/mL, R&D Systems, Minneapolis, MN), Tiron (#172553, 10 mM, Sigma-Aldrich, St. Louis, MO), Trolox (#648471, 0.5 mM, Sigma-Aldrich), 4-Octyl itaconate (#SML2338, 0.1 mM, Sigma-Aldrich) and NAD (#N8285, 1 mM, Sigma-Aldrich).

For series [4], the system named is isolated mitochondria of colon. The series is described as follows: ATP detection assay in isolated mitochondria from IECs. It is filed as biochemical, mice. The settings on record: 21 days post HCT, after malonate treatment. The procedure: Mitochondria Isolation: Isolated IECs from syngeneic and allogeneic recipients in mitochondria isolation buffer (MIB) were disrupted using a glass homogenizer with 2-3 strokes. MIB was composed of 70 mM sucrose (#S0389, Sigma-Aldrich), 210 mM mannitol (#M9546, Sigma-Aldrich), 5 mM HEPES, 1 mM EGTA (#E0396, Sigma-Aldrich), 0.5% BSA, pH 7.2 and protease inhibitor cocktail (#78429, Sigma-Aldrich). Homogenate was centrifuged at 800 g for 10 min at 4° C. Following centrifugation, fat/lipid was carefully aspirated, and the remaining supernatant was decanted through 2 layers of cheesecloth to a separate tube and centrifuged twice at 8000 g for 15 min at 4° C. After removal of the light mitochondrial layer, the pellet was resuspended in MIB and centrifuged at 8500 g for 10 min. The final pellet was resuspended in a minimal volume of mitochondrial assay solution (MAS) and kept on ice. […] Total protein (mg/ml) was determined via Pierce BCA Protein Assay (#23225, Thermo Scientific). […] The ATP level was measured using the Cell Titer Glo 2.0 luminescence assay (#G9243, Promega, Madison, WI). Luminescence was measured for 500 ms using a SpectraMax M3 Microplate reader (Molecular Devices, San Jose, CA).

Series [5] deals with primary colonic epithelial cells (PCECs). The series is described as follows: 51Cr release cytotoxic killing assay, pre-treated PCECs as targets of primed T cells. It is filed as cell-based, B6 WT mice. The settings on record: for cell death of pre-treated PCECs vs diluent: co-cultured with allo-primed T cells; for apoptosis of pre-treated PCECs: cultured with syngeneic T cells.

T1 sequence (Q8K2B3 43-664): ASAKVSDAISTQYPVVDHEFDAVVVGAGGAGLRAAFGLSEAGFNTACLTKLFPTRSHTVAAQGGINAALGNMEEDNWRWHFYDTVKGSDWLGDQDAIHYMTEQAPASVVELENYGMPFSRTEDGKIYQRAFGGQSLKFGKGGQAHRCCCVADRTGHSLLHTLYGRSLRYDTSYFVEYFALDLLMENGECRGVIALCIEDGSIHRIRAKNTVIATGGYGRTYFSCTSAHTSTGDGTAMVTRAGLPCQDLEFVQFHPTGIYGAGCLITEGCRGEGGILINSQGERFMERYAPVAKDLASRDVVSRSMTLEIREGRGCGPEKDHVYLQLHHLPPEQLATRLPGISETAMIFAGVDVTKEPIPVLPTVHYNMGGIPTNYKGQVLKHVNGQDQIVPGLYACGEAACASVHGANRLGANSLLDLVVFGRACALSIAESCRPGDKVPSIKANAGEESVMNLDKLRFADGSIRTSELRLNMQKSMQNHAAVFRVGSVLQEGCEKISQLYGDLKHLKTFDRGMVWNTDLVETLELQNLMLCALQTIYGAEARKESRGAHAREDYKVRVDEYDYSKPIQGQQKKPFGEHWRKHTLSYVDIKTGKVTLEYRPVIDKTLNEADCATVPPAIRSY
T1 sequence (Q9CQA3 31-282): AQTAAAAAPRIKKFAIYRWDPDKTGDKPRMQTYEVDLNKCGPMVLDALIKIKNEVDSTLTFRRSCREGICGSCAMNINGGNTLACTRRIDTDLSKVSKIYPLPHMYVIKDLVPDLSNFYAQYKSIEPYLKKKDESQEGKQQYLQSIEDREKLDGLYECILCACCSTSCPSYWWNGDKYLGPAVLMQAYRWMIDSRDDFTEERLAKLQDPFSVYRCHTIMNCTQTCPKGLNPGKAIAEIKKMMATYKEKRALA
T1 sequence (Q9CZB0 30-169): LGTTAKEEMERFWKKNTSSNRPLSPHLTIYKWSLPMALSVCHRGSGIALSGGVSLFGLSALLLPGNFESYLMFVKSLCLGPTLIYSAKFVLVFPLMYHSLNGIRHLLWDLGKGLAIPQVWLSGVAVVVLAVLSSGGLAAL
T1 sequence (Q9CXV1 57-159): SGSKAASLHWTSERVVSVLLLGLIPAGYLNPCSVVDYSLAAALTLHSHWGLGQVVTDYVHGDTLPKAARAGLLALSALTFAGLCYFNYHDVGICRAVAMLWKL

Take dextran sulfate sodium [DSS]: in the series on B6 WT mice, colonic IECs, the “SDHA levels in colonic IECs” value is recorded as “similar” and the “succinate levels in colonic IECs” value is on record as “similar”.
As for `COc1[nH]c(=O)c(C(=O)[C@@H](C)C[C@H](C)[C@@H](Cl)CCl)c(O)c1OC` [atpenin A5], the “SDHA function (SDH enzymatic staining)” value at SDHA is recorded as “inhibited SDHA function”. In addition, in series [1], the “clinical GVHD severity of allogeneic mice vs vehicle” value is listed as “more severe GVHD symptoms”, the “survival of allogeneic mice vs vehicle” value is recorded as “died significantly faster” and the “survival of syngeneic mice” value is reported as “survived”.
Take `C=C(CC(=O)OCCCCCCCC)C(=O)O` [4-octyl itaconate, 4-Octyl itaconate]: the “susceptibility to T cell mediated cytotoxicity” value in series [2] is listed as “enhance susceptibility to T cell mediated cytotoxicity”.
Take `Cc1c(C)c2c(c(C)c1O)CCC(C)(C(=O)O)O2` (stereo not shown) [Trolox]: in series [3], the “apoptosis of PCECs induced by GranzymeB and perforin” value was “did not reduce apoptosis”.
For `COC(=O)CC(=O)OC` [malonate, dimethyl malonate], the “ATP production, difference between mitochondria from allogeneic and syngeneic/naive animals” value in series [4] is given as “difference diminished”. Moreover, in series [5], the “cell death of pre-treated PCECs vs diluent” value is reported as “significantly higher levels of cell death” and the “apoptosis of pre-treated PCECs” value was “no increase in apoptosis”. Also, the “SDHA function (SDH enzymatic staining)” value on SDHA was “inhibited SDHA function”. Further, in series [1], the “histopathological GVHD severity in the colon and ileum” value is reported as “increased GVHD severity”; the “histopathological GVHD severity in the liver, skin, and lungs” value was “not in the liver, skin, and lungs”; the “clinical GVHD severity of allogeneic mice vs vehicle” value is reported as “more severe GVHD symptoms”; the “survival of allogeneic mice vs vehicle” value is given as “died significantly faster”. Moreover, in series [1], the “survival of syngeneic mice” value was “survived”.
Turning to `C=C(CC(=O)OC)C(=O)OC` [itaconate, dimethyl itaconate], in series [5], the “cell death of pre-treated PCECs vs diluent” value is “significantly higher levels of cell death” and the “apoptosis of pre-treated PCECs” value is reported as “no increase in apoptosis”. Also, the “SDHA function (SDH enzymatic staining)” value at SDHA was “inhibited SDHA function”. Further, in series [1], the “histopathological GVHD severity in the colon and ileum” value was “increased GVHD severity”; the “histopathological GVHD severity in the liver, skin, and lungs” value is “not in the liver, skin, and lungs”; the “clinical GVHD severity of allogeneic mice vs vehicle” value is listed as “more severe GVHD symptoms”; the “survival of allogeneic mice vs vehicle” value was “died significantly faster”.
On to `O=S(=O)(O)c1cc(O)c(O)c(S(=O)(=O)O)c1` [Tiron], for which, in series [3], the “apoptosis of PCECs induced by GranzymeB and perforin” value is given as “did not reduce apoptosis”.
